Results published in article PMC12010006, “Subnanomolar MAS-related G protein-coupled receptor-X2/B2 antagonists with efficacy in human mast cells and disease models” (Signal Transduction and Targeted Therapy, 2025).
Like-named read-outs stand apart in the source and are kept apart here.

Experiments:
Format in all cases: cell-based
[1] = target: T1, MRGPRX4 (Homo sapiens, UniProt Q96LA9); experiment: β-arrestin assay, CHO cells expressing MRGPRX4 (subtype selectivity); conditions: 10 µM, versus PSB-18061 (2.6 µM)
T1 construct: host or cells: CHO-K1 beta-arrestin-2 (EA) cells
T1 sequence (Q96LA9 whole entry): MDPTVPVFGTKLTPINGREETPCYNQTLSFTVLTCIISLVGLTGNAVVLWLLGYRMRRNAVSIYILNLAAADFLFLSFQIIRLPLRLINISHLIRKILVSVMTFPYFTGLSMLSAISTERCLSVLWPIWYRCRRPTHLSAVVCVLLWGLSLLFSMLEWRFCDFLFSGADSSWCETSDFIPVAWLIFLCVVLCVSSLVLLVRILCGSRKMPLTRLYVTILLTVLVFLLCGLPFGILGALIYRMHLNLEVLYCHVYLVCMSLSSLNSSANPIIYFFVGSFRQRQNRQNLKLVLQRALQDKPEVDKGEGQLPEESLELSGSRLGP
Method: (§1) Fig. 1 Characterization of MRGPRX2 inhibitor 1. a Chemical structure and molecular weight (MW) of 1. b Concentration-response curve of 1 determined in β-arrestin recruitment assays. CHO cells that recombinantly express MRGPRX2 were employed versus the agonist CST-14 (at its EC80 value of 1.0 µM). […] Data are means ± SEM of 3 biological replicates, performed in duplicates. c MRGPRX subtype selectivity of 1 (10 µM) determined in β-arrestin assays using CHO cells that recombinantly express the respective MRGPRX subtype. MRGPRX1 was activated by BAM-22P (8.5 µM),[19] MRGPRX2 was activated by CST-14 (1 µM), MRGPRX3 was activated by PSB-20294 (1 µM), and MRGPRX4 by PSB-18061 (2.6 µM).[44] […] The effect of each MRGPRX agonist was assessed in the absence and in the presence of 1; results were normalized to the maximal agonist effect. […] Statistical significance was determined by one-way ANOVA (Tukey’s multiple comparisons) test (ns P > 0.05 and ****P < 0.0001) TEXT PRINTED IN THE PICTURE: (a) 1 Hit compound: MW: 241.29 g/mol
(§2) Fig. 3 Biological characterization of PSB-172656. a Selectivity of PSB-172656 (100 nM) for MRGPRX2 over MRGPRX1, MRGPRX3, and MRGPRX4 measured in β-arrestin assays utilizing β-arrestin-CHO cells with recombinant expression of the respective receptor. […] Statistical significance was determined by one-way ANOVA (Tukey’s multiple comparison) test (ns P > 0.05). […]

[2] = target: T2, MRGPRX2 (Homo sapiens, UniProt Q96LB1); experiment: β-arrestin recruitment assay (antagonist mode), β-arrestin-CHO cells recombinantly expressing MRGPRX2; parameters: expressed in transfected cells
T2 sequence (Q96LB1 1-330): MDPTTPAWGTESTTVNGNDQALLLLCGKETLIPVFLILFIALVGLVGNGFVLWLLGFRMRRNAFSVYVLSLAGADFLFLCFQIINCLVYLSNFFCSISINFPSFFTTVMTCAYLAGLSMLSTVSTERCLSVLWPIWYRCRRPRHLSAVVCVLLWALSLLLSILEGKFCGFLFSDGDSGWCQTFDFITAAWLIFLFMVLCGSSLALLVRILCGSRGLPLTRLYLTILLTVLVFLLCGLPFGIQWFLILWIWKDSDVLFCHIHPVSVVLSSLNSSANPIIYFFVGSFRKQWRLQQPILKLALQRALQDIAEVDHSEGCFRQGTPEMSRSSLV

[3] = target: T3, MRGPRX3 (Homo sapiens, UniProt Q96LB0); experiment: β-arrestin assay, CHO cells expressing MRGPRX3 (subtype selectivity); conditions: 10 µM, versus PSB-20294
T3 construct: inferred from the enzyme-complementation principle of the assay; expressed in transfected cells; host or cells: CHO-K1 beta-arrestin-2 (EA) cells
T3 sequence (Q96LB0 whole entry): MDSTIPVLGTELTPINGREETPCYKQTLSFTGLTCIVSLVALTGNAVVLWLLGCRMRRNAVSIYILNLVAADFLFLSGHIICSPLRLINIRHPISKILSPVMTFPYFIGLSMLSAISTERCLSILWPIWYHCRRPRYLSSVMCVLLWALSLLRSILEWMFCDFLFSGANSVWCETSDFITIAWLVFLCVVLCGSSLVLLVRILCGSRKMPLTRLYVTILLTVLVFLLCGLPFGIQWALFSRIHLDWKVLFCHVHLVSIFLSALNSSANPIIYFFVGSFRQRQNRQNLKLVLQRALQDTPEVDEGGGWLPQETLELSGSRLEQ
Method: as §1, §2

[4] = versus CST-14 (EC80 1,000 nM, EC50 483 nM), Cheng-Prusoff, read-out: β-Arrestin assay Ki ± SEM

inhibition of MRGPRX4 activation [1]	IC50 ([2]; versus CST-14 (EC80 1.0 µM), read-out: IC50, β-arrestin assay) [nM]	Ki [2, 4] [nM]	inhibition of MRGPRX3 activation [3]	blockade of MRGPRX2 activation ([2]; 10 µM, versus CST-14 (1 µM))	difference of Ki versus other agonists from the Ki value versus CST-14 ([2]; all investigated agonists) [fold]	Schild plot slope ([2]; versus (R)-ZINC-3573)	IC50 ([2]; versus (R)-ZINC-3573 (EC80 2 µM), read-out: IC50 versus (R)-ZINC-3573, β-arrestin assay) [nM]	Ki ([2]; versus (R)-ZINC-3573 (EC80 2 µM), read-out: Ki versus (R)-ZINC-3573, β-arrestin assay) [nM]	Kb ([2]; versus (R)-ZINC-3573, read-out: KB value (Schild plot)) [nM]	Kb ([2]; versus (R)-ZINC-3573, read-out: pKB value (Schild plot) (converted)) [nM]	Ki ([2]; versus C48/80 (EC80 18 µM), read-out: Ki versus compound 48/80, β-arrestin assay) [nM]	Kb ([2]; versus CST-14, read-out: pKB value (Schild plot) (converted)) [nM]	mode of action (inhibition type) ([2]; versus CST-14 and (R)-ZINC-3573)	selectivity for MRGPRX2 versus other MRGPRX subtypes ([2]; versus MRGPRX1, -X3, -X4)	IC50 ([2]; versus SP (EC80 3 µM), read-out: IC50 versus substance P, β-arrestin assay) [nM]	Ki ([2]; versus SP (EC80 3 µM), read-out: Ki versus substance P, β-arrestin assay) [nM]	IC50 ([2]; versus clomipramine (EC80 13 µM), read-out: IC50 versus clomipramine, β-arrestin assay) [nM]	Ki ([2]; versus clomipramine (EC80 13 µM), read-out: Ki versus clomipramine, β-arrestin assay) [nM]	SMILES
no inhibition	2420 ± 220	788 ± 143	no inhibition																CCCc1c(C)[nH]c2nc3ccccc3n2c1=O [Compound 1, 2-methyl-3-propylbenzo[4,5]imidazo[1,2-a]pyrimidin-4(1H)-one]
not able to block		6.81	not able to block	completely blocked	< 2	0.891	11.3 ± 3.1	5.44	7.59	7.41	3.68	6.76	competitive mode of action	at least 1000 fold	30.5 ± 6.3	8.82	17.2 ± 0.4	7.04	CCc1c(C(C)C)[nH]c2nc3cc(F)c(F)cc3n2c1=O [Compound 24, 3-ethyl-7,8-difluoro-2-isopropylbenzo[4,5]imidazo [1,2-a] pyrimidin-4(1H)-one]
